US20080090788A1, “Chemical Compounds” (priority 2005, published 2008)

Experiments:
IkB-α promoter = IkB-α promoter luciferase activity in transfected activated HSC; assay type: cell-based; details: 24 hours, rat HSC; for inhibition of IkB-α promoter activity compared with SFZ 1 mM: 3a 0.150 mM, 3e 0.127 mM, 3f 0.089 mM (at IC50)
Method: (§1) For HSC transfections, activated HSC were transfected by the non-liposomal Effectene protocol (Qiagen, UK) using 1 μg reporter plasmid DNA and 10 ng of control Renilla plasmid pRLTK (Promega, Southampton, UK) according to the manufacturer's instructions. After 24 hours, HSC were treated with test compounds for a further 24 hours. Luciferase assays were performed using a dual luciferase kit (Promega) according to the manufacturer's instructions. Firefly luciferase activities were normalised for differences in transfection efficiency by measurement of the activity of the co-transfected pRLTK. The pIκBα wt-Luc plasmid contains nucleotides −332 to +35 of the human IkB-α promoter cloned upstream of luciferase gene (Oakley F, et al, J Biol Chem 2003; 278: 24359-70). The pTIMP1-Luc plasmid contains the 162 bp human TIMP1 minimal promoter cloned upstream of luciferase gene (Bertrand-Philippe M, et al. J Biol Chem 2004; 279: 24530-9). The pAP1-Luc plasmid (Stratagene, UK) contains 7 copies of a consensus AP-1 binding site upstream of the minimal promoter and the luciferase gene.
(§2) To extend these findings, further analyses were performed using the […] promoter which contains multiple NF-kB binding sites and is a well studied NF-kB target. […] Consistent with the presence of activated NF-kB in HSC, (Wright M C et al, Gastroenterology 2001; 121: 685-98.) the IkB-α promoter was activated in HSC (FIG. 2a). SFZ (1 mM) inhibited promoter activity by >60%. […] Therefore, the improved inhibitory activity of analogues 3a, 3e and 3f is specific for NF-kB mediated transcription and is not restricted to U937 cells or artificial promoter constructs.
(§3) Rat HSC were transfected with (A) IkB-α-Luc, (B) TIMP1-Luc or (C) pAP-1-Luc reporter constructs. After 24 hours, cells were treated with sulfasalazine (1 mM), 3a (0.150 mM), 3e (0.127 mM), 3f (0.089 mM), or treated with DMSO as a control. Luciferase activity was determined after another 24 hours. Data presented are mean luciferase activity (±SEM) relative to control cells (value set to 100), derived from two separate experiments, each performed in duplicate and using an independent preparation of HSC.

[1] = tested on: AP-1 transcription factor binding sites; test: AP-1 reporter construct luciferase activity in transfected activated HSC; assay type: cell-based; details: SFZ 1 mM, 3a 0.150 mM, 3e 0.127 mM, 3f 0.089 mM, 24 hours, rat HSC
Method: as §1, §2, §3

ARH77 cells = test: Cell death in ARH77 cells, propidium iodide flow cytometry; assay type: cell-based; details: Homo sapiens, ARH-77; 20 hours, PI uptake; mean of two determinations ±SD; read-out: IC50 for induction of ARH77 cell death
Method: A flow cytometry method was used to determine the ability of SFZ analogues to induce cell death in ARH77 cells. The proportion of cells that had lost plasma membrane integrity was used as a measure of cell viability. ARH77 (5×10^4) cells were incubated in a volume of 200 μl in 96 well plates with compound, an equivalent amount of DMSO or were left untreated as a control. After 20 hours, cells were washed in phosphate buffered saline (PBS), resuspended in PBS containing 1 μg/ml propidium iodide (PI) for 10 minutes. Cells were analysed using a FACSCalibur (BD Biosciences, Oxford, UK) using the FL2 channel. […] The proportion of cells with intense fluorescence as a proportion of total cells was calculated.
To assess cell death promoting activity, the ability of SFZ and the analogues with enhanced NF-kB inhibiting activity (3a, 3e and 3f) to kill Epstein-Barr virus transformed human B-cells, which are dependent on NF-kB for survival was compared (Cahir-McFarland E D, Carter K, Rosenwald A, et al. Role of NF-kB in cell survival and transcription of latent membrane protein 1-expressing or Epstein-Barr virus latency III-infected cells. J Virol 2004; 78: 4108-4119). […] Dose response experiments were performed to determine IC50 values (FIG. 4b).
ARH77 cells were incubated with various concentrations of SFZ, compounds 3a, 3e and 3f, DMSO as a solvent control, or were left untreated. […] (A) Representative histogram of fluorescence in untreated, DMSO or compound 3e (250 μM) treated cells. (B) Representative dose response experiment (□, untreated; ♦, DMSO; ▴, SFZ; ●, 3a; +, 3e; ×, 3f). Each data point is the mean of duplicate determinations (±SD). (C) Mean IC50 values (±SD) for induction of ARH77 cell death, derived from two independent experiments each performed in duplicate.

[2] = tested on: Hepatic stellate cells (HSC); test: HSC apoptosis by acridine orange staining; assay type: cell-based, rat; details: for degree of HSC apoptosis compared with SFZ 1 mM: 3a 0.150 mM, 3e 0.127 mM, 3f 0.089 mM (approximately 5-fold lower concentrations)
Method: To determine the effects of SFZ analogues on HSC survival, activated HSC were treated for 24 hrs with SFZ or analogues, and apoptotic HSC were visualised by staining with Acridine orange (1 μg/ml in 10 mM 4-(2-hydroxyethyl)-1-piperazineethanesulfonic acid (Hepes) buffer, pH7.4). The proportion of apoptotic cells in five random fields were counted in duplicate wells at x20 magnification using a fluorescein isothiocyanate filter. Apoptosis of HSC measured by acridine orange correlates closely with activation of caspase 3.
In addition to its role in malignant cells, NF-kB is required for survival of HSC, which play a key role in the pathogenesis of chronic liver disease. The ability of SFZ and analogues to induce HSC apoptosis was also compared. SFZ (1 mM) increased apoptosis ˜4.5-fold in cultured rat HSC (FIG. 5b). […] Therefore, the SFZ analogues with improved NF-kB-inhibiting activity are also relatively potent inducers of HSC apoptosis.
(A) CLL cells from three different patients were cultured in the presence of SFZ or compounds 3a and 3f (all at 0.5 mM), or DMSO as a solvent control. After 6 hours, the degree of PARP cleavage was determined as a measure of apoptosis. […] Note that compound 3f was not tested in cells from patient 3. (B) HSC were cultured in the presence of SFZ (1 mM), compounds 3a (0.150 mM), 3e (0.127 mM), 3f (0.089 mM), or DMSO as a solvent control. Analogues were used at the concentration that gave 50% inhibition of NF-kB transcriptional activity in U937 cells. After 20 hours, the proportion of apoptotic cells were visualised by acridine orange staining. Apoptotic cells were counted in five fields in duplicate for each concentration, in two independent experiments and results expressed as mean ±SEM,

| inhibition of IkB-α promoter activity compared with SFZ 1 mM (IkB-α promoter) | effect on activity of AP-1 reporter construct [1] | Structure (SMILES) | IC50 (ARH77 cells) [µM] | degree of HSC apoptosis compared with SFZ 1 mM [2] | inhibition at 1000 µM (IkB-α promoter; SFZ 1 mM) [%] | increase in apoptosis of cultured HSC ([2]; SFZ 1 mM, cultured rat HSC) [fold] |
| --- | --- | --- | --- | --- | --- | --- |
| approximately equally effective | neither SFZ or the analogues interfered | COc1ccc(CNS(=O)(=O)c2ccc(/N=N/c3ccc(O)c(C(=O)O)c3)cc2)cc1 [Compound 3a, 2-hydroxy-5-[4-(4-methoxy-benzylsulfamoyl)-phenylazo]-benzoic acid] | 499 ± 93 | approximately the same degree of apoptosis |  |  |
| approximately equally effective | neither SFZ or the analogues interfered | O=C(O)c1cc(/N=N/c2ccc(S(=O)(=O)NCc3ccc(C(F)(F)F)cc3)cc2)ccc1O [Compound 3f, 2-hydroxy-5-[4-(4-trifluoromethyl-benzylsulfamoyl)-phenylazo]-benzoic acid] | 407 ± 11 | approximately the same degree of apoptosis |  |  |
| approximately equally effective | neither SFZ or the analogues interfered | Cc1cc(/N=N/c2ccc(S(=O)(=O)NCc3ccc(C(F)(F)F)cc3)cc2)cc(C(=O)O)c1O [Compound 3e, 2-hydroxy-3-methyl-5-[4-(4-trifluoromethyl-benzylsulfamoyl)-phenylazo]-benzoic acid] | 195 ± 38 | approximately the same degree of apoptosis |  |  |
|  | neither SFZ or the analogues interfered | O=C(O)c1cc(/N=N/c2ccc(S(=O)(=O)Nc3ccccn3)cc2)ccc1O [SFZ, Sulfasalazine, reference compound] | 1100 ± 250 |  | > 60 | ~4.5 |
